Tests used:
Type in all cases: cell-based, human
hMSCs [1] = assay: Protein synthesis assay in undifferentiated hMSCs; details: for citrate-mediated protein synthesis in presence of inhibitor: GM, with citrate
Procedure: Upon 24 and 96 hours incubation, protein synthesis was measured by labeling the intracellular translating proteins with clickable probes (Protein Synthesis Assay kit, Cayman Chemical, Ann Arbor, Mich.).

hMSCs [2] = assay: ALP production / osteogenic markers of hMSCs with soluble citrate, PSer or inhibitor (PNPP assay, western blot)
Excerpt: (§1) hMSCs with passage ≤6 were used in the present differentiation study. […] For osteo-phenotype progression assessment, cells were lysed, and alkaline phosphatase (ALP) production was quantified by using p-nitrophenyl phosphate (PNPP) as its substrate. Alizarin Red was used to stain the calcium nodules formed by the differentiating cells, and the calcium content in the nodules was quantified by Calcium Assay Kit (Sigma-Aldrich, St. Louis, Mo.) and normalized to protein amount as determined by BCA protein assay kit (Thermo Scientific™, Waltham, Mass.). Expression of osteogenic master transcription factor Runx2 was examined by real-time PCR and by using a Runx2 ELISA kit (American Research Products, Inc.™, Waltham, Mass.) according to manufacturer's instructions. Moreover, the expression of bone matrix proteins Collagen type I and osteopontin (OPN) were evaluated with real-time PCR, while OPN expression were also observed by immunofluorescent staining. Western blot was performed to evaluate the expression of ALP, OPN and SLC13a5 before or after differentiating for predetermined time periods.
For ALP expression analysis, cell samples were lysed using RIPA buffer, and the cell lysate was centrifuged to remove debris. Then ALP activity measurement was performed by utilizing p-nitrophenyl phosphate (PNPP) which is hydrolyzed by ALP into a yellow colored product. Briefly, the PNPP stock solution (IM) was diluted with ALP assay buffer at a ratio of 1:100, 50 μL of which was subsequently added to 50 μL of lysate sample. After 10-30 min of incubation at 37° C., the plates were measured at 405 nm on a plate reader (TECAN, Männedorf, Switzerland). The same cell lysate solutions were used to determine DNA amount via a PicoGreen dsDNA quantification kit (Invitrogen, Carlsbad, Calif.) according to the manufacturer's instructions.
After protein quantification by BCA assay, gel electrophoresis was carried out on AnykD™ Mini-Protean TGX stain-free Protein gels at 50 V for 10 min, followed by 250 V for 10-20 min, and was transferred to PVDF membranes with the Trans-Blot Turbo™ system. […]

hMSCs [3] = assay: Intracellular ATP determination in hMSCs
hMSCs [4] = assay: Oxygen consumption rate (OCR) study in hMSCs
hMSCs [5] = assay: Citrate assay, intracellular citrate in hMSCs; details: 24 h incubation with citrate supplemented medium
hMSCs [6] = assay: hMSC proliferation with citrate (CCK-8); details: citrate 0 to 2000 μM, pH 7.4, in growth medium (GM)
Excerpt: as §1
Human mesenchymal stem cells (hMSCs; Lonza) were cultured in low glucose Dulbecco's Modified Eagle Medium (DMEM) with 10 vol. % fetal bovine serum (FBS) (Atlanta Biologicals; Flowery Branch, Ga.) and GlutaMAX (Gibco Laboratories, Gaithersburg, Md.). […]

hMSCs [7] = assay: Extracellular acidification rate (ECAR) / glycolysis and lactate production in hMSCs; details: undifferentiated hMSCs, 24 h citrate treatment in GM
hMSCs [8] = assay: Real-time PCR of osteogenic genes in differentiating hMSCs; details: 200 μM citrate vs OG control, 7 and 14 days
Excerpt: as §1
Total RNA from whole cells was isolated with QIAGEN RNeasy kit (Hilden, Germany) and was transcribed into cDNA using High-Capacity cDNA Reverse Transcription Kits (Applied Biosystems™, Foster City, Calif.). For quantitative analysis, real-time PCR was performed using cDNA as the template, together with TaqMan Gene Expression Master Mix and the TaqMan Gene Expression Assays with both primers and probe included (Applied Biosystems™, Foster City, Calif.), and using the ABI 7900HT Fast Real-Time PCR system (Applied Biosystems™, Foster City, Calif.) according to manufacturer's instructions. Human PPIA (Cyclophilin A) was used for normalization. The primers and TaqMan probe for human Runx2, CoL1A1, SPP1 and PPIA were Hs00231692_ml, Hs00164004_ml, Hs00959010_ml, and Hs99999904_ml, respectively.

hMSCs [9] = assay: Alizarin Red staining and calcium quantification of hMSCs; details: citrate in growth medium (GM)
Procedure: hMSCs with passage ≤6 were used in the present differentiation study. […] Alizarin Red was used to stain the calcium nodules formed by the differentiating cells, and the calcium content in the nodules was quantified by Calcium Assay Kit (Sigma-Aldrich, St. Louis, Mo.) and normalized to protein amount as determined by BCA protein assay kit (Thermo Scientific™, Waltham, Mass.).
For Alizarin Red staining, cell samples were fixed with 4% paraformaldehyde, and 40 mM Alizarin red solutions were used to stain calcium nodules for 30 min with gentle shaking. After thoroughly washing, the stained cells were observed on a Microscope (Nikon, Tokyo, Japan). For calcium quantification, cell samples were washed with PBS and decalcified in 0.6 N HCl for 12 h with gentle shaking. Calcium content in the supernatants was determined colorimetrically by using the Calcium assay kit (Sigma-Aldrich, St. Louis, Mo.), while protein content in cell lysate solutions (lysed with RIPA buffer) was determined using the Pierce BCA protein assay kit (Thermo Scientific™, Waltham, Mass.) according to manufacturer's instructions.

hMSCs [10] = assay: Runx2 ELISA in hMSCs; details: citrate treatment in OG, as early as day 4
Excerpt: as §1

[11] = differentiating hMSCs in OG, vs OG medium control
[12] = undifferentiated hMSCs, 24 h citrate treatment in GM

SMILES: C[C@@H]1C[C@@H]([C@H](O)CC2CC(=O)NC(=O)C2)C(=O)[C@@H](C)C1 [Cycloheximide]
- citrate-mediated protein synthesis in presence of inhibitor (hMSCs [1]): abolished this activity

SMILES: COc1ncc(C)cc1CC[C@@](O)(CC(=O)O)C(=O)O [PF06761281, reference compound]
- citrate-induced elevation of ALP production with SLC13a5 inhibitor (hMSCs [2]; 14 days in OG, citrate plus inhibitor): negated the citrate-induced elevation of ALP production
- citrate effect on metabolic flux to elevate intracellular ATP levels, with SLC13a5 inhibitor (hMSCs [3]; undifferentiated hMSCs, citrate plus inhibitor): could be abolished
- citrate-increased mitochondrial respiration with SLC13a5 inhibitor (hMSCs [4]; hMSCs differentiated for 14 days, 1 day treatment in OG): likewise abolished

SMILES: N[C@@H](COP(=O)(O)O)C(=O)O [PSer, Phosphoserine]
- citrate-promoted osteo-phenotype progression (ALP production) (hMSCs [2]; 40 μM PSer with citrate in OG, 21 days): substantially enhanced
- ALP production (hMSCs [2]; higher PSer dosages (up to 1000 μM) with citrate in OG, 21 days): further elevation of ALP production
- intracellular ATP (hMSCs [3]; [11]): showed no difference from the OG medium control
- intracellular ATP levels (hMSCs [3]; undifferentiated hMSCs, addition of PSer with or without citrate treatment): no significant effect

SMILES: CCC(=O)N1CCN(c2ccc(-n3c(=O)ccc4cnc5ccc(-c6cnc7ccccc7c6)cc5c43)cc2C(F)(F)F)CC1 [Torin1]
- citrate-mediated protein synthesis in presence of inhibitor (hMSCs [1]): abolished this activity

SMILES: O=C(O)CC(O)(CC(=O)O)C(=O)O [citrate]
- protein synthesis (hMSCs [1]; 200 μM citrate in GM, 24 h and 96 h, vs control without citrate): increased significantly
- intracellular citrate (hMSCs [5]): marked increase
- intracellular ATP (hMSCs [3]; [11]): showed no difference from the OG medium control
- intracellular ATP (hMSCs [3]; hMSCs differentiated for 14 days, citrate in OG for 1 or 4 days): significant effects on intracellular ATP only after 4 days of treatment
- intracellular ATP levels (hMSCs [3]; [12]): elevated intracellular ATP levels
- hMSCs proliferation (hMSCs [6]): little increase
- glycolytic flux (ECAR) (hMSCs [7]): decrease in glycolytic flux
- production of lactate (hMSCs [7]): reduced production of lactate
- expression of Col1a1 (real-time PCR) (hMSCs [8]): remarkably elevated expression
- expression of Runx2 (real-time PCR) (hMSCs [8]): remarkably elevated expression
- expression of SPP1 (real-time PCR) (hMSCs [8]): remarkably elevated expression
- mitochondrial respiration (OCR) (hMSCs [4]; hMSCs differentiated for 14 days, 1 day citrate treatment in OG): markedly increased
- oxygen consumption rate (OCR) (hMSCs [4]; [12]): increased oxygen consumption rate
- calcium deposition by Alizarin Red staining (hMSCs [9]): absence of calcium deposition
- Runx2 protein (ELISA) (hMSCs [10]): favorable accumulation
